The values below come from ChEMBL document CHEMBL5579836, “Extensive targeting of chemical space at the prime side of ketoamide inhibitors of rhomboid proteases by branched substituents empowers their selectivity and potency” (Eur J Med Chem, 2024).

Assay [1] concerns the target T1, Rhomboid protease GlpG (Escherichia coli (strain K12), UniProt P09391).
T1 sequence (P09391 whole entry): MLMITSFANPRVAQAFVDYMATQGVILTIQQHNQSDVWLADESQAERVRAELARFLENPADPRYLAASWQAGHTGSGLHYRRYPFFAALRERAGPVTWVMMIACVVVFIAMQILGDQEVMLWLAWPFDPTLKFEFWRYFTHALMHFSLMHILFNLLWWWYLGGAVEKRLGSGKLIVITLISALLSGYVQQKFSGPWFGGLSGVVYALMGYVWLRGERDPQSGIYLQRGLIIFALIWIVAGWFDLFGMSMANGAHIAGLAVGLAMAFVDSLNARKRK
The assay is described as follows: Inhibition of Escherichia coli GlpG extracted from Escherichia coli C43(DE3) using KSp96 as substrate incubated for 1 hr by fluorescence based assay. As to conditions: for Ki: read-out: Ki(app).

The nature of assay [2]: Inhibition of Strep-tagged recombinant human RHBDL2 extracted from Expi293 cells using KSp118 as substrate incubated for 1 hr by fluorescence based assay. Format: cell-free.
Assay [3] addresses T1, Rhomboid protease GlpG. The assay is described as follows: Inhibition of GlpG in wild-type Escherichia coli MC4100 using MBP-Flag-LacYTMD2-Trx as substrate.
Assay [4] concerns the target T2, Presenilin-associated rhomboid-like protein, mitochondrial (Homo sapiens, UniProt Q9H300).
T2 sequence (Q9H300 whole entry): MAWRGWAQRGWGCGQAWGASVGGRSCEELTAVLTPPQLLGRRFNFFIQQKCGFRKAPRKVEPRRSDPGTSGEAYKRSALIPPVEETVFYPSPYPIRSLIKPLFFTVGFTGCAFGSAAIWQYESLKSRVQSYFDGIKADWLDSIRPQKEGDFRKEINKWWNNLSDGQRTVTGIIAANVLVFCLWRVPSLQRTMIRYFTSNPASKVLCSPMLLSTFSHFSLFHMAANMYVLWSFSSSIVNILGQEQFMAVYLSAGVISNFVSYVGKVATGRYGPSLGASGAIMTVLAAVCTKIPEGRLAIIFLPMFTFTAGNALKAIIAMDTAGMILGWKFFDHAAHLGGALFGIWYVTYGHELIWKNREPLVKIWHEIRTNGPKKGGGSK
The assay can be described thus: Inhibition of tetracycline-inducible FLAG-tagged human PARL stably transfected in HEK293T harboring FITR/PARL KO. Format: cell-based.

Assay [5] can be described thus: Selectivity index, ratio of IC50 for rhomboid (unknown origin) to IC50 for recombinant human PARL using KSp106 as substrate.
Assay [6] can be described thus: Selectivity index, ratio of IC50 for rhomboid (unknown origin) to IC50 for Strep-tagged recombinant human RHBDL2 extracted from Expi293 cells using KSp118 as substrate.
The nature of assay [7]: Selectivity index, ratio of IC50 for rhomboid (unknown origin) to IC50 for Escherichia coli GlpG extracted from Escherichia coli C43(DE3) using KSp96 as substrate.

Starred links: 1 amine or outer side, 2 acyl side, 3 side chain; linkers in the order of their positions; H or OH if unused. Non-standard residues stand in square brackets, D forms with d. Residues, ends and D or L forms follow the SMILES beside them. *: point of attachment. Pheol(OBn) = c1ccc(COC[C@H](Cc2ccccc2)N*)cc1; NH(4-phenylbutyl) = c1ccc(CCCCN*)cc1; X1 = C[C@H](N[*:1])C(=O)C(=O)[*:2]

The term IC50 denotes the midpoint of a concentration-inhibition curve. `CC(=O)N1CCC[C@H]1C(=O)N[C@H](C(=O)N[C@@H](C)C(=O)N[C@@H](CCCCN)C(=O)N[C@@H](C)C(=O)C(=O)NCCCCc1ccccc1)C(C)C` (Ac-PVAK[X1]-{NH(4-phenylbutyl)}): the IC50 in assay [1] came to 330 nM; in assay [2], 0.712 µM.

As a reminder, the EC50 is the concentration that produces a half-maximal response. Higher therefore signals a less potent agent. `CC(=O)N[C@H](C(=O)N[C@@H](CCCNC(=N)N)C(=O)N[C@@H](Cc1c[nH]cn1)C(=O)N[C@@H](C)C(=O)C(=O)NCCCCc1ccccc1)C(C)C`: the IC50 is 44.4 nM in assay [1] and 6.21 µM in assay [2]. In addition, the midpoint of the response in assay [3], the EC50, lay at 1470 nM.

`C[C@H](NC(=O)[C@H](Cc1c[nH]cn1)NC(=O)[C@H](CCCNC(=N)N)NC(=O)CCc1ccccc1)C(=O)C(=O)N[C@H](COCc1ccccc1)Cc1ccccc1` came in with an IC50 in assay [1] of 2 nM. Further, the EC50 in assay [3] turned out to be 424 nM.

As for `CC(C)CC(=O)N[C@H](C(=O)N[C@@H](C)C(=O)N[C@@H](CCCCN)C(=O)N[C@@H](C)C(=O)C(=O)NCCCCc1ccccc1)C(C)C`, the IC50 in assay [2] came to 0.236 µM.

Regarding `CC(=O)N[C@@H](C)C(=O)N[C@H](C(=O)N[C@@H](Cc1ccccc1)C(=O)N[C@@H](CC(C)C)C(=O)N[C@@H](C)C(=O)C(=O)N[C@H](COCc1ccccc1)Cc1ccccc1)C(C)C` (Ac-AVFL[X1]-{Pheol(OBn)}), the IC50 in assay [1] stood at 14.8 nM; in assay [2] it was 55.5 µM.

As for `CC(=O)N[C@@H](C)C(=O)N[C@H](C(=O)N[C@@H](Cc1ccccc1)C(=O)N[C@@H](CC(C)C)C(=O)N[C@@H](C)C(=O)C(=O)NCCCCc1ccccc1)C(C)C` (Ac-AVFL[X1]-{NH(4-phenylbutyl)}), the IC50 in assay [1] amounted to 300 nM; in assay [2], 32.8 µM. Further, in assay [4], the EC50 came out at 445 nM. The Ratio IC50 in assay [5] stood at 1; in assay [6] it was 1150; in assay [7], 10.6.

On to `CC(C)CC(=O)N[C@@H](CCCNC(=N)N)C(=O)N[C@@H](Cc1c[nH]cn1)C(=O)N[C@@H](C)C(=O)C(=O)N[C@H](COCc1ccccc1)Cc1ccccc1`, for which the IC50 in assay [1] was 2.3 nM. The response in assay [3] was half-maximal at 337 nM (EC50).

Regarding `CC(=O)N1CCC[C@H]1C(=O)N[C@H](C(=O)N[C@@H](C)C(=O)N[C@@H](CCCCN)C(=O)N[C@@H](C)C(=O)C(=O)N[C@H](COCc1ccccc1)Cc1ccccc1)C(C)C` (Ac-PVAK[X1]-{Pheol(OBn)}), the results for the IC50 in assay [1] and in assay [2] were 5.6 nM and 0.768 µM, respectively.

As to `CC(=O)N[C@H](C(=O)N[C@@H](CCCNC(=N)N)C(=O)N[C@@H](Cc1c[nH]cn1)C(=O)N[C@@H](C)C(=O)C(=O)NC(CCCc1ccccc1)Cc1ccccc1)C(C)C` (mixture of isomers), in assay [1], the IC50 was 2.3 nM and the Ki stood at 1.3 nM. This molecule also gave an EC50 in assay [3] of 123 nM.

Regarding `CC(=O)N[C@H](C(=O)N[C@@H](CCCNC(=N)N)C(=O)N[C@@H](Cc1c[nH]cn1)C(=O)N[C@@H](C)C(=O)C(=O)N[C@H](COCc1ccccc1)Cc1ccccc1)C(C)C`, in assay [1], the IC50 stood at 2.5 nM and the Ki stood at 1.4 nM. In assay [3], this molecule gave an EC50 of 173 nM. The IC50 in assay [2] worked out at 5.39 µM.

`CCCCc1ccc(OCC[C@H](Cc2ccccc2)NC(=O)C(=O)[C@H](C)NC(=O)[C@H](Cc2c[nH]cn2)NC(=O)[C@H](CCCNC(=N)N)NC(=O)[C@@H](NC(C)=O)C(C)C)cc1`: in assay [1], 1.9 nM corresponded to half-maximal inhibition (IC50) and the Ki amounted to 0.7 nM. For the same molecule, the EC50 in assay [3] amounted to 131 nM.

In turn, `CC(=O)N[C@H](C(=O)N[C@@H](CCCNC(=N)N)C(=O)N[C@@H](Cc1c[nH]cn1)C(=O)N[C@@H](C)C(=O)C(=O)NCCc1ccccc1)C(C)C` gave an IC50 in assay [1] of 56.1 nM. This molecule also showed an EC50 in assay [3] of 1610 nM.
